Experimental data: patent publication US4704407A, “Soluble dobutamine salts” (Eli Lilly and Company, priority 1986, dated 1987)
Counter-ions that a name gives are not always drawn.

Legend:
[1] = Storage stability of concentrate solutions; assay type: physicochemical; conditions: at 5° C., N2 atmosphere, with sodium bisulfite, pH=3.65
From the text: In a repeat with (-) tartaric acid, 58.6 g of dobutamine hydrochloride in deaerated water were neutralized with dilute aqueous sodium hydroxide in the presence of a peroxide scavenger under N2; pH=11.09. The precipitate of dobutamine base was washed with the […] and dried. The filter cake was dissolvd in 2 l of deaerated water followed by 26.1 g of (-)-tartaric acid and 0.8 g of sodium bisulfite; pH=3.65. The solution was filtered and then stored at […], always under an N2 atmosphere. Such stored concentrate solutions are stable for 12 months or more at 5° C.

[2] = cited from earlier work
[3] = Solubility of dobutamine salts (as dobutamine base, in water); assay type: physicochemical
Experimental: 8.3 Millimoles of dobutamine free base and 8.7 millimoles of one of each of the following acids: glycolic, (+)-tartaric, gluconic, lactobionic and glucoheptonic, were mixed under an N2 atmosphere were an amount of 0.035 g aqueous sodium bisulfite dissolved in water for injection such that the final volume was […]; i.e., 100 mg/ml of dobutamine base. If required, the salt-forming mixture was warmed to expedite solution of dobutamine base. The solid salt can be obtained from the solution, if desired, by evaporation of the solvent.
The solubilities of each of the dobutamine salts thus prepared was in excess of 100 mg/ml. By contrast, a saturated solution of dobutamine hydrochloride provides about 25 mg/ml of dobutamine.
Furthermore, with any of the acids named, stereoisomers thereof can also be used rather than a racemate. Dobutamine content of all solutions is monitored with UV.

[4] = ascribed to dobutamine, U.S. Pat. No. 3,932,461
[5] = U.S. Pat. No. 3,932,461 (Suh I)

In the case of `CC(CCc1ccc(O)cc1)NCCc1ccc(O)c(O)c1` (stereo not drawn) [dobutamine salt of (-)-tartaric acid], the “stability of stored concentrate solutions” value [1] is reported as at least 12 months.
In the case of `CC(CCc1ccc(O)cc1)NCCc1ccc(O)c(O)c1` (racemic) [dobutamine, (±)-N-[3-(4-hydroxyphenyl)-1-methylpropyl]2-(3,4-dihydroxyphenyl) ethylamine], the contractile force [2, 4] is given as “increased contractile force”, the “effect on blood pressure or heart rate” value [2, 4] is given as “without significant effect on blood pressure or heart rate” and the “solubility in water (in words)” value ([3]; dobutamine base separates from the alkaline medium) is given as “water-insoluble”.
For `CC(CCc1ccc(O)cc1)NCCc1ccc(O)c(O)c1` (centres unmarked) [dobutamine hydrochloride], the solubility ([3]; water, saturated solution, mg/ml of dobutamine, read-out: dobutamine provided by a saturated solution) was about 25 mg/mL.
In the case of `CC(CCc1ccc2c(c1)OCO2)NCCc1ccc(O)c(O)c1` (centres unmarked) [N-[3-(3,4-methylenedioxyphenyl)-1-methylpropyl 2-(3,4-dihydroxyphenyl)ethylamine], the cardiotonic properties [2, 5] is given as “cardiotonic properties similar to those ascribed to dobutamine” and the “depressant or analgesic activity” value [2, 5] is given as “depressants or analgesics”.
With `CC(CCc1ccc(O)cc1)NCCc1ccc(O)c(O)c1` (racemic) [dobutamine salt of (±)-tartaric acid] the “solubility of the dobutamine salt (in words)” value ([3]; salts with further tartaric acid isomers) was “high solubility”.
